Measured values reported in the NIST ThermoML archive (doi:10.1016/j.tca.2014.10.002).
Several values for one entry are separate records, joined by “and”; a condition that tells them apart may be missing. Identical values can stand only once. ± gives the expanded uncertainty stated by the source.

Legend:
[1] = DTA
[2] = Molar enthalpy of transition or fusion; details: DSC
[3] = molar heat capacity at constant pressure; details: 101.33 kPa

Structure (SMILES): OC1CCCCCCC1 [cyclooctanol]
- Triple point temperature ([1]; Crystal 1): 296.78 ± 0.42 K
- Triple point temperature ([1]; Crystal 2): 263.56 ± 0.39 K
- Molar enthalpy of transition or fusion ([2]; Crystal 1): 0.457 ± 0.0765 kcal/mol
- Molar enthalpy of transition or fusion ([2]; Crystal 2): 0.507 ± 0.0765 kcal/mol
- molar heat capacity at constant pressure ([3]; 261.1 K, Crystal 1, Large sample (1 g) DSC): 235.9 ± 4.1 J/K/mol
- molar heat capacity at constant pressure ([3]; 261.23 K, Crystal 1, Large sample (1 g) DSC): 236.1 ± 4.1 J/K/mol
- molar heat capacity at constant pressure ([3]; 264 K, Crystal 1, Large sample (1 g) DSC): 238.7 ± 4.1 J/K/mol and 238.8 ± 4.1 J/K/mol
- molar heat capacity at constant pressure ([3]; 267 K, Crystal 1, Large sample (1 g) DSC): 241.8 ± 4.2 J/K/mol and 241.9 ± 4.2 J/K/mol
- molar heat capacity at constant pressure ([3]; 270 K, Crystal 1, Large sample (1 g) DSC): 245.1 ± 4.2 J/K/mol and 245.3 ± 4.3 J/K/mol
- molar heat capacity at constant pressure ([3]; 273 K, Crystal 1, Large sample (1 g) DSC): 248.9 ± 4.3 J/K/mol and 249 ± 4.3 J/K/mol
- molar heat capacity at constant pressure ([3]; 276 K, Crystal 1, Large sample (1 g) DSC): 252.7 ± 4.4 J/K/mol and 252.8 ± 4.4 J/K/mol
- molar heat capacity at constant pressure ([3]; 279 K, Crystal 1, Large sample (1 g) DSC): 256.9 ± 4.5 J/K/mol
- molar heat capacity at constant pressure ([3]; 282 K, Crystal 1, Large sample (1 g) DSC): 261.4 ± 4.5 J/K/mol and 261.5 ± 4.5 J/K/mol
- molar heat capacity at constant pressure ([3]; 283.88 K, Crystal 1, Large sample (1 g) DSC): 264.3 ± 4.6 J/K/mol
- molar heat capacity at constant pressure ([3]; 284.25 K, Crystal 1, Large sample (1 g) DSC): 265.2 ± 4.6 J/K/mol
- molar heat capacity at constant pressure ([3]; 301.94 K, Liquid, Large sample (1 g) DSC): 295.6 ± 5.1 J/K/mol
- molar heat capacity at constant pressure ([3]; 302.06 K, Liquid, Large sample (1 g) DSC): 295.8 ± 5.1 J/K/mol
- molar heat capacity at constant pressure ([3]; 305 K, Liquid, Large sample (1 g) DSC): 299.1 ± 5.2 J/K/mol
- molar heat capacity at constant pressure ([3]; 310 K, Liquid, Large sample (1 g) DSC): 304.6 ± 5.3 J/K/mol
- molar heat capacity at constant pressure ([3]; 315 K, Liquid, Large sample (1 g) DSC): 310.1 ± 5.4 J/K/mol and 310 ± 5.4 J/K/mol
- molar heat capacity at constant pressure ([3]; 318.15 K, Liquid, Small sample (50 mg) DSC): 313.1 ± 5.4 J/K/mol
- molar heat capacity at constant pressure ([3]; 320 K, Liquid, Large sample (1 g) DSC): 315.1 ± 5.5 J/K/mol
- molar heat capacity at constant pressure ([3]; 323.14 K, Liquid, Small sample (50 mg) DSC): 318.2 ± 5.5 J/K/mol
- molar heat capacity at constant pressure ([3]; 325 K, Liquid, Large sample (1 g) DSC): 320.2 ± 5.5 J/K/mol
- molar heat capacity at constant pressure ([3]; 328.14 K, Liquid, Small sample (50 mg) DSC): 323.1 ± 5.6 J/K/mol
- molar heat capacity at constant pressure ([3]; 330 K, Liquid, Large sample (1 g) DSC): 325 ± 5.6 J/K/mol and 324.9 ± 5.6 J/K/mol
- molar heat capacity at constant pressure ([3]; 333.14 K, Liquid, Small sample (50 mg) DSC): 327.7 ± 5.7 J/K/mol
- molar heat capacity at constant pressure ([3]; 335 K, Liquid, Large sample (1 g) DSC): 329.4 ± 5.7 J/K/mol and 329.3 ± 5.7 J/K/mol
- molar heat capacity at constant pressure ([3]; 338.14 K, Liquid, Small sample (50 mg) DSC): 332.6 ± 5.8 J/K/mol
- molar heat capacity at constant pressure ([3]; 340 K, Liquid, Large sample (1 g) DSC): 333.7 ± 5.8 J/K/mol
- molar heat capacity at constant pressure ([3]; 343.14 K, Liquid, Small sample (50 mg) DSC): 337 ± 5.8 J/K/mol
- molar heat capacity at constant pressure ([3]; 345 K, Liquid, Large sample (1 g) DSC): 338.4 ± 5.9 J/K/mol and 338.3 ± 5.9 J/K/mol
- molar heat capacity at constant pressure ([3]; 348.13 K, Liquid, Small sample (50 mg) DSC): 341.1 ± 5.9 J/K/mol
- molar heat capacity at constant pressure ([3]; 350 K, Liquid, Large sample (1 g) DSC): 343 ± 5.9 J/K/mol and 342.9 ± 5.9 J/K/mol
- molar heat capacity at constant pressure ([3]; 353.13 K, Liquid, Small sample (50 mg) DSC): 345.4 ± 12 J/K/mol
- molar heat capacity at constant pressure ([3]; 355 K, Liquid, Large sample (1 g) DSC): 347.1 ± 6 J/K/mol and 347 ± 6 J/K/mol
- molar heat capacity at constant pressure ([3]; 357.87 K, Liquid, Large sample (1 g) DSC): 349.1 ± 6 J/K/mol
- molar heat capacity at constant pressure ([3]; 357.94 K, Liquid, Large sample (1 g) DSC): 349.1 ± 6 J/K/mol
- molar heat capacity at constant pressure ([3]; 358.13 K, Liquid, Small sample (50 mg) DSC): 349.5 ± 12 J/K/mol
- molar heat capacity at constant pressure ([3]; 363.12 K, Liquid, Small sample (50 mg) DSC): 353.5 ± 12 J/K/mol
- molar heat capacity at constant pressure ([3]; 366.11 K, Liquid, Small sample (50 mg) DSC): 355.8 ± 12 J/K/mol
- molar heat capacity at constant pressure ([3]; 369.12 K, Liquid, Small sample (50 mg) DSC): 357.9 ± 12 J/K/mol
- molar heat capacity at constant pressure ([3]; 372.13 K, Liquid, Small sample (50 mg) DSC): 359.6 ± 12 J/K/mol
- molar heat capacity at constant pressure ([3]; 375.14 K, Liquid, Small sample (50 mg) DSC): 361.4 ± 12 J/K/mol
- molar heat capacity at constant pressure ([3]; 378.12 K, Liquid, Small sample (50 mg) DSC): 363 ± 12 J/K/mol
- molar heat capacity at constant pressure ([3]; 381.14 K, Liquid, Small sample (50 mg) DSC): 364.4 ± 12 J/K/mol
- molar heat capacity at constant pressure ([3]; 384.12 K, Liquid, Small sample (50 mg) DSC): 365.8 ± 12 J/K/mol
- molar heat capacity at constant pressure ([3]; 387.13 K, Liquid, Small sample (50 mg) DSC): 366.9 ± 12 J/K/mol
- molar heat capacity at constant pressure ([3]; 390.11 K, Liquid, Small sample (50 mg) DSC): 367.8 ± 12 J/K/mol
- molar heat capacity at constant pressure ([3]; 393.12 K, Liquid, Small sample (50 mg) DSC): 368.7 ± 12 J/K/mol
- molar heat capacity at constant pressure ([3]; 396.14 K, Liquid, Small sample (50 mg) DSC): 369.4 ± 12 J/K/mol
- molar heat capacity at constant pressure ([3]; 399.12 K, Liquid, Small sample (50 mg) DSC): 370 ± 12 J/K/mol
- molar heat capacity at constant pressure ([3]; 402.13 K, Liquid, Small sample (50 mg) DSC): 371 ± 12 J/K/mol
- molar heat capacity at constant pressure ([3]; 405.12 K, Liquid, Small sample (50 mg) DSC): 371.6 ± 12 J/K/mol
- molar heat capacity at constant pressure ([3]; 408.13 K, Liquid, Small sample (50 mg) DSC): 371.9 ± 12 J/K/mol
- molar heat capacity at constant pressure ([3]; 411.11 K, Liquid, Small sample (50 mg) DSC): 372.3 ± 12 J/K/mol
- molar heat capacity at constant pressure ([3]; 414.12 K, Liquid, Small sample (50 mg) DSC): 372.6 ± 12 J/K/mol
- molar heat capacity at constant pressure ([3]; 417.13 K, Liquid, Small sample (50 mg) DSC): 372.9 ± 12 J/K/mol
- molar heat capacity at constant pressure ([3]; 420.12 K, Liquid, Small sample (50 mg) DSC): 373.1 ± 12 J/K/mol
- molar heat capacity at constant pressure ([3]; 423.13 K, Liquid, Small sample (50 mg) DSC): 373.2 ± 12 J/K/mol
- molar heat capacity at constant pressure ([3]; 426.11 K, Liquid, Small sample (50 mg) DSC): 373.2 ± 12 J/K/mol
- molar heat capacity at constant pressure ([3]; 429.19 K, Liquid, Small sample (50 mg) DSC): 373.2 ± 12 J/K/mol
- molar heat capacity at constant pressure ([3]; 432.31 K, Liquid, Small sample (50 mg) DSC): 373.2 ± 12 J/K/mol
- molar heat capacity at constant pressure ([3]; 435.12 K, Liquid, Small sample (50 mg) DSC): 373.2 ± 12 J/K/mol
- molar heat capacity at constant pressure ([3]; 438.13 K, Liquid, Small sample (50 mg) DSC): 373 ± 12 J/K/mol
- molar heat capacity at constant pressure ([3]; 441.14 K, Liquid, Small sample (50 mg) DSC): 372.8 ± 12 J/K/mol
- molar heat capacity at constant pressure ([3]; 444.13 K, Liquid, Small sample (50 mg) DSC): 372.8 ± 12 J/K/mol
- molar heat capacity at constant pressure ([3]; 447.14 K, Liquid, Small sample (50 mg) DSC): 372.7 ± 12 J/K/mol
- molar heat capacity at constant pressure ([3]; 450.12 K, Liquid, Small sample (50 mg) DSC): 372.5 ± 12 J/K/mol
- molar heat capacity at constant pressure ([3]; 453.13 K, Liquid, Small sample (50 mg) DSC): 372.6 ± 12 J/K/mol
- molar heat capacity at constant pressure ([3]; 456.14 K, Liquid, Small sample (50 mg) DSC): 372.6 ± 12 J/K/mol
- molar heat capacity at constant pressure ([3]; 459.13 K, Liquid, Small sample (50 mg) DSC): 372.6 ± 12 J/K/mol
- molar heat capacity at constant pressure ([3]; 462.14 K, Liquid, Small sample (50 mg) DSC): 373 ± 12 J/K/mol
- molar heat capacity at constant pressure ([3]; 465.12 K, Liquid, Small sample (50 mg) DSC): 373.5 ± 12 J/K/mol
- molar heat capacity at constant pressure ([3]; 468.14 K, Liquid, Small sample (50 mg) DSC): 374.1 ± 12 J/K/mol
- molar heat capacity at constant pressure ([3]; 471.14 K, Liquid, Small sample (50 mg) DSC): 374.6 ± 12 J/K/mol
